Measured values taken from patent publication US20070166696A1, “Adenovirus-transfected primary cells and methods of pathway mapping” (SANOFI-AVENTIS U.S. LLC, priority 2003, published 2007).

What was measured:
Format in all cases: cell-based, human
[1] = tested on: AP-1 cis-element; assay: Adenovirus luciferase reporter in CD14+ plate-bound macrophages; conditions: LPS 1 μg/ml, 24 hours post stimulation
Method: (§1) After a certain amount of time post stimulation, the cells are collected and luciferase activity is measured. Luciferase activity can be measured by an enzyme assay using a photon generating substrate and detecting photons by luminometer.
(§2) Similar experiments were performed for CD14^+ plate-bound macrophages. In this example, macrophages are obtained as follows: First, peripheral blood mononuclear cells (“PBMCs”) are obtained by density gradient centrifugation. One density gradient centrifugation medium is FICOLL PAQUE, commercially available from Amersham Biosciences. Monocytes are then isolated from the PBMCs by magnetic depletion of non-monocytes. Finally, macrophages are isolated from the monocytes by attachment of the monocytes to a tissue culture plate in the absence of fetal bovine serum (“FBS”).
(§3) In this example, resting cultures of isolated macrophages are then infected with a recombinant adenovirus containing the luciferase gene which is transcribed under the control of a specific cis-element. In this example, four recombinant adenovirus constructs are used to infect four separate cultures of macrophages, each construct containing one of four cis-elements: CRE, AP-1, NFκB, and ISRE. The macrophages are infected at a MOI of 100 per cell. […] At 24 hours post stimulation, cells are harvested and luciferase activity is measured by luminometer. […]

[2] = tested on: CRE cis-element; assay: as above; conditions: LPS 1 μg/ml, 24 hours post stimulation
Method: as §1, §2, §3

[3] = tested on: AP-1 cis-element; assay: Adenovirus luciferase reporter in iDCs; conditions: LPS 1 μg/ml, 2, 4, 8, 24 hours time course
Method: as §1
(§4) Similar experiments were performed for in vitro differentiated dendritic cells (“iDCs”). In this example, iDCs are obtained as follows: First, peripheral blood mononuclear cells (“PBMCs”) are obtained by density gradient centrifugation. One density gradient centrifugation medium is FICOLL PAQUE, commercially available from Amersham Biosciences. Monocytes are then isolated from the PBMCs by magnetic depletion of non-monocytes. Finally, iDCs are isolated from the monocytes by treatment of the monocytes with ILA and GM-GSF for 6 days.
(§5) In this example, resting cultures of isolated iDCs are then infected with a recombinant adenovirus containing the luciferase gene which is transcribed under the control of a specific cis-element. In this example, three recombinant adenovirus constructs are used to infect three separate cultures of iDCs, each construct containing one of three cis-elements: AP-1, NFκB, and ISRE. The iDCs are infected at a MOI of 100 per cell. After 16 hours of incubation post infection, the iDCs are then either mock stimulated (“C”) or stimulated with lipopolysaccharide (“LPS”) at the concentration of 1 μg/ml. At 2 hours, 4 hours, 8 hours, and 24 hours post stimulation, cells are harvested and luciferase activity is measured by luminometer. FIG. 6B contains three charts depicting the time course of AP-1, NFκB, and ISRE stimulation, respectively. […] These charts also indicate different time courses of activation.

[4] = tested on: ISRE cis-element; assay: Adenovirus luciferase reporter in iDCs; conditions: LPS 1 μg/ml, 2, 4, 8, 24 hours time course
Method: as §1, §4, §5

[5] = tested on: NFκB cis-element; assay: Adenovirus luciferase reporter in iDCs; conditions: LPS 1 μg/ml, 2, 4, 8, 24 hours time course
Method: as §1, §4, §5

For lipopolysaccharide [LPS], the “activation of the AP-1 cis-element (luciferase activity)” value [1] was “significant stimulated activation”, the “activation of the CRE cis-element (luciferase activity)” value [2] was “significant stimulated activation” and the “stimulation of the AP-1 cis-element (luciferase activity)” value [3] was “significant stimulation”. For the same substance, the “stimulation of the ISRE cis-element (luciferase activity)” value [4] was “significant stimulation” and the “stimulation of the NFκB cis-element (luciferase activity)” value [5] was “significant stimulation”.
